# Data reported in patent US20090017103A1, “Antisense oligonucleotides for prevention of metastasis formation of cancer cells” (priority 2003, published 2009).
# Where “and” joins values, the source holds several entries; their conditions need not be identical. Equal values may be shown once. Entries after “also recorded” stand apart in the source; their conditions may differ. Marks after values point to notes of the source that are not given here.
# Assays:
# [1] = test system: MDA-MB-231^GFP cells; experiment: In vivo treatment with mini-osmotic pumps (osteolytic bone metastasis model);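 on Mean size of lesion: mean lesion size in relative units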;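 on Size of lesion (per animal): lesion size in relative units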; parameters: species or system nude rats; conditions: for X-ray scan of hind legs: lytic lesions (in words): FIG. 5-7; for T/C: vs NSO control; for T/C × 100: mean lesion size vs NSO control rats; for Incidence of metastasis: mini-osmotic pumps s.c., 7 mg/kg daily over four weeks
# [2] = test system: MDA-MB-231^GFP cells; experiment: In vivo model with pretreated MDA-MB-231^GFP cells (osteolytic bone metastasis); parameters: species or system nude rats; lesion size of the rat(s) that developed lytic metastasis, % of control / lesion sizes with respect to all animals of the group compared to untreated control / lesion size of individual animal compared to the untreated control / T/C % (mean lesion size compared to untreated control): concentration or dose not given beside the values; conditions: for T/C × 100: mean lesion size vs untreated control rats; for rats in which formation of osteolytic metastasis was inhibited (no visible metastasis): cells pre-exposed to ASO, observation period of eight weeks; for Incidence of metastasis: cells pretreated in vitro (10 μM);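 on Mean size of lesion: mean lesion size in relative units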
# [3] = test system: MDA-MB-231 breast cancer cells; experiment: Clonogenicity assay (colony formation); type: cell-based, human; conditions: for inhibition of colony formation (colony growth inhibition): single exposure
# Method in brief: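 MDA-MB-231 cells given lipofectamine-complexed ASO (5, 10 or 20 μM, 12 h) and/or ErPC3 (10, 14, 20 μM, 24 h), singly or in sequential cycles, then grown 48-72 h. 5000 cells plated in methylcellulose/30% FBS; MTT-stained colonies (≥30 cells) counted after 5-7 days.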
# [4] = observation period 8 weeks, pretreated cells
# [5] = pretreated cells, after eight weeks
# [6] = pretreated cells, after four weeks
substance,measurement,setting,value
5′-GCT-TTC-TTC-GTT-TTC-ATT-TC-3′ [ASO-BSPII-6],X-ray scan of hind legs: lytic lesions (in words),[1]; eight weeks after tumor cell implantation,"clear increase of lytic lesions in the tibia, however new formation of bone tissue at the edges of the lesions"
same,X-ray scan of hind legs: lytic lesions (in words),"[1]; four weeks after tumor cell implantation, therapy from implantation",small lytic lesions in the tibia
same,X-ray scan of hind legs: lytic lesions (in words),[1]; six weeks after tumor cell implantation,visible lytic lesions in the tibia
same,X-ray scan of hind legs: lytic lesions (in words),[1]; ten weeks after tumor cell implantation,lytic lesions are no longer visible in the region of the tibia
same,animals that did not develop metastases,"[1]; mini-osmotic pumps, 12 weeks",one animal out of the five
same,T/C,"[1]; mini-osmotic pumps, week 4",39%
same,T/C,"[1]; mini-osmotic pumps, week 12",2%
same,T/C × 100,[1]; week 4,39
same,Mean size of lesion,"[1]; week 4, mini-osmotic pumps",13 R.U.
same,Size of lesion (per animal),"[1]; week 4, mini-osmotic pumps",11 R.U. and 0 R.U. and 32 R.U. and 8 R.U. and 23 R.U.
same,Incidence of metastasis,[1]; week 4,4/5
same,T/C × 100,[1]; week 6,18
same,Mean size of lesion,"[1]; week 6, mini-osmotic pumps",32 R.U.
same,Size of lesion (per animal),"[1]; week 6, mini-osmotic pumps",39 R.U. and 0 R.U. (2×) and 83 R.U. and 37 R.U.
same,Incidence of metastasis,[1]; week 6,3/5
same,T/C × 100,[1]; week 8,11
same,Mean size of lesion,"[1]; week 8, mini-osmotic pumps",29 R.U.
same,Size of lesion (per animal),"[1]; week 8, mini-osmotic pumps",52 R.U. and 0 R.U. (2×) and 50 R.U. and 43 R.U.
same,Incidence of metastasis,[1]; week 8,3/5
same,T/C × 100,[1]; week 9,7
same,Mean size of lesion,"[1]; week 9, mini-osmotic pumps",28 R.U.
same,Size of lesion (per animal),"[1]; week 9, mini-osmotic pumps",28 R.U. and 0 R.U. (2×) and 36 R.U. and 78 R.U.
same,Incidence of metastasis,[1]; week 9,3/5
same,T/C × 100,[1]; week 10,5
same,Mean size of lesion,"[1]; week 10, mini-osmotic pumps",20 R.U.
same,Size of lesion (per animal),"[1]; week 10, mini-osmotic pumps",17 R.U. and 0 R.U. (2×) and 29 R.U. and 52 R.U.
same,Incidence of metastasis,[1]; week 10,3/5
same,T/C × 100,[1]; week 12,2
same,Mean size of lesion,"[1]; week 12, mini-osmotic pumps",9 R.U.
same,Size of lesion (per animal),"[1]; week 12, mini-osmotic pumps",0 R.U. (3×) and 18 R.U. and 29 R.U.
same,Incidence of metastasis,[1]; week 12,2/5
same,T/C × 100,[2]; 4 weeks,1.6
same,T/C × 100,[2]; 6 weeks,2.9
same,T/C × 100,[2]; 8 weeks,9.1
same,X-ray scan of hind legs: osteolytic lesions (in words),"[2]; FIG. 3 and FIG. 4, one rat each, cells pre-exposed",a minute osteolytic lesion in the tibia only; also recorded: a small lesion in the tibia
same,rats in which formation of osteolytic metastasis was inhibited (no visible metastasis),[2],two out of four
same,rats in which formation of osteolytic metastasis was inhibited (no visible metastasis),[2]; listed as ASO-BSPII-06,two of four and 2 of 4
same,Incidence of metastasis,[2]; observation period 4 weeks,1/4
same,Mean size of lesion,"[2]; observation period 4 weeks, pretreated cells",3.5 R.U.
same,Incidence of metastasis,[2]; observation period 6 weeks,1/4
same,Mean size of lesion,"[2]; observation period 6 weeks, pretreated cells",8.8 R.U.
same,Incidence of metastasis,[2]; observation period 8 weeks,2/4
same,Mean size of lesion,[2]; [4],31.5 R.U.
same,Size of lesion (per animal),[2]; [4],106^5) R.U.
same,T/C % (mean lesion size compared to untreated control),[2]; [5],9.1%
same,lesion size of individual animal compared to the untreated control,[2]; [5],about 30% and 6%
same,animals in which formation of lytic metastases was prevented,[2]; [6],three out of four
same,lesion size of individual animal compared to the untreated control,[2]; [6],6.4%
same,lesion size of individual animal compared to the untreated control,"[2]; pretreated cells, after six weeks",about 12%
same,lesion size of the rat(s) that developed lytic metastasis,"[2]; pretreated cells, week 4",14 R.U.
same,"lesion size of the rat(s) that developed lytic metastasis, % of control","[2]; pretreated cells, week 4, vs mean of the two control groups (197 R.U.)",7%
same,lesion size of the rat(s) that developed lytic metastasis,"[2]; pretreated cells, week 8",63 R.U.
same,"lesion size of the rat(s) that developed lytic metastasis, % of control","[2]; pretreated cells, week 8, vs mean of the two control groups (416 R.U.)",15%
same,% Control,"[3]; Exp. III a, repeated exposure 2 × 5 μM",91%
same,Mean colony no.,"[3]; Exp. III a, repeated exposure 2 × 5 μM, control 456","415^6,8)"
same,% Control,"[3]; Exp. III a, repeated exposure 2 × 10 μM",82%
same,Mean colony no.,"[3]; Exp. III a, repeated exposure 2 × 10 μM, control 456",373^8)
same,% Control,"[3]; Exp. III a, repeated exposure 2 × 20 μM",72%
same,Mean colony no.,"[3]; Exp. III a, repeated exposure 2 × 20 μM, control 456",326^8)
same,% Control,"[3]; Experiment I, single treatment, 5 μM",89%
same,Mean colony no.,"[3]; Experiment I, single treatment, 5 μM, control 778",692^6)
same,% Control,"[3]; Experiment I, single treatment, 10 μM",81%
same,Mean colony no.,"[3]; Experiment I, single treatment, 10 μM, control 778",632^7)
same,% Control,"[3]; Experiment I, single treatment, 20 μM",61%
same,Mean colony no.,"[3]; Experiment I, single treatment, 20 μM, control 778",478
same,% Control,"[3]; Experiment III b, repeated exposure 2 × 5 μM",70%
same,Mean colony no.,"[3]; Experiment III b, repeated exposure 2 × 5 μM, control 517","363^6,8)"
same,% Control,"[3]; Experiment III b, repeated exposure 2 × 10 μM",55%
same,Mean colony no.,"[3]; Experiment III b, repeated exposure 2 × 10 μM, control 517",282^8)
same,% Control,"[3]; Experiment III b, repeated exposure 2 × 20 μM",49%
same,Mean colony no.,"[3]; Experiment III b, repeated exposure 2 × 20 μM, control 517",251^8)
same,inhibition of colony formation (colony growth inhibition),[3]; 5 μM,11%
same,inhibition of colony formation (colony growth inhibition),[3]; 10 μM,19%
same,inhibition of colony formation (colony growth inhibition),[3]; 20 μM,39%
same,"repeated exposure compared with single exposure, colony formation (in words)",[3]; twofold vs single ASO exposure,no increased inhibition of colony formation as compared with single exposure
